Reference: patent US20050096360A1, “Inhibitors of semicarbazide-sensitive amine oxidase (SSAO) and VAP-1 mediated adhesion useful for treatment of diseases” (priority 2003, published 2005)
Counter-ions that a name gives are not always drawn.

Tests used:
[1] = molecular target: T1, SSAO (bovine plasma amine oxidase, PAO) (Bos taurus, UniProt Q29437); experiment: In vitro inhibition of SSAO activity, coupled colorimetric method; format: biochemical; conditions: 30 min preincubation, benzylamine substrate; read-out: SSAO Inhibitory Activity IC50
T1 construct: Bovine plasma amine oxidase (PAO) was purchased from Worthington Biochemical; purchased Worthington Biochemical (Lakewood, N.J.)
T1 sequence (Q29437 17-762): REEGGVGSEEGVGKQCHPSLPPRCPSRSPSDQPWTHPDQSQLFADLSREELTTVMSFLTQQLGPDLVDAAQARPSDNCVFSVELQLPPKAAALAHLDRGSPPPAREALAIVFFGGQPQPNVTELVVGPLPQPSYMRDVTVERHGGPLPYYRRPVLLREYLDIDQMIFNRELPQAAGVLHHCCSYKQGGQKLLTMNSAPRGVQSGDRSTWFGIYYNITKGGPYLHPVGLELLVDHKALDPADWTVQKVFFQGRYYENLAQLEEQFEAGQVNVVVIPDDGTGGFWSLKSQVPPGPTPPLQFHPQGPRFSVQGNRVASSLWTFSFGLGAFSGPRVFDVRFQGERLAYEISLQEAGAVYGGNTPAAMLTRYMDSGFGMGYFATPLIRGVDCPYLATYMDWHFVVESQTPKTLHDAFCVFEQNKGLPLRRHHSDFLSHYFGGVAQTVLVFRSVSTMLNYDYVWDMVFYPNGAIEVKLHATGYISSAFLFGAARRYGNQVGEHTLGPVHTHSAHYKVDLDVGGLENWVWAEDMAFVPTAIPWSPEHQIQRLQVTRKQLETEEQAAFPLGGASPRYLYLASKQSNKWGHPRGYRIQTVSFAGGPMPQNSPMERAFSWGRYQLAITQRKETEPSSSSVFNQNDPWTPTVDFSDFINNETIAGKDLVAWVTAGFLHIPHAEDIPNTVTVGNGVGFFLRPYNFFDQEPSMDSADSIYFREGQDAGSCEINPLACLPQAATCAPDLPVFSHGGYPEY
Method: SSAO activity was measured using the coupled colorimetric method essentially as described for monoamine oxidase and related enzymes (Holt A. et al. (1997) Anal. Biochem. 244:384). Bovine plasma amine oxidase (PAO) was purchased from Worthington Biochemical (Lakewood, N.J.) and used as a source of SSAO for activity measurements. The SSAO assay was performed in 96 well microtitre plates as follows. A pre-determined amount of inhibitor diluted in 0.2 M potassium phosphate buffer, pH 7.6, was added to each well, if required. The amount of inhibitor varied in each assay but was generally at a final concentration of between 10 nM and 10 μM. Controls lacked inhibitor. In order to study the effects of potential inhibitors 50 μl of inhibitor solution were preincubated for 30 min at 37° C. with 0.4 mU of PAO in an a total volume of 130 μl of 0.2 M potassium phosphate buffer pH 7.6. Assays were then started by addition of 20 μl 10 mM benzylamine substrate and incubated for 20 min at 37° C. The following reagents were then added to a final reaction volume of 200 μl, 50 μl of freshly made chromogenic solution containing […] vanillic acid (Sigma # V-2250), […] 4-aminoantipyrine (Sigma # A-4328) and 12 U/ml horseradish peroxidase (Sigma # P-8250) in order to cause a change of 0.5 OD A490 per hour. This was within the linear response range of the assay. The plates were incubated for 1 hr at 37° C. and the increase in absorbance, reflecting SSAO activity, was measured at 490 nm using a microplate spectrophotometer (Power Wave 40, Bio-Tek Inst.). Inhibition was presented as percent inhibition compared to control after correcting for background absorbance and IC50 values calculated using GraphPad Prism software.

[2] = in vivo
[3] = molecular target: T2, recombinant human MAO-B (Homo sapiens, UniProt P27338); experiment: Inhibition of MAO-B activity, colorimetric; format: biochemical; conditions: for Specificity for SSAO vs. MAO-B: ratio IC50 MAO-B to IC50 SSAO
T2 construct: purchased BD Biosciences (MA, USA)
T2 sequence (P27338 1-520): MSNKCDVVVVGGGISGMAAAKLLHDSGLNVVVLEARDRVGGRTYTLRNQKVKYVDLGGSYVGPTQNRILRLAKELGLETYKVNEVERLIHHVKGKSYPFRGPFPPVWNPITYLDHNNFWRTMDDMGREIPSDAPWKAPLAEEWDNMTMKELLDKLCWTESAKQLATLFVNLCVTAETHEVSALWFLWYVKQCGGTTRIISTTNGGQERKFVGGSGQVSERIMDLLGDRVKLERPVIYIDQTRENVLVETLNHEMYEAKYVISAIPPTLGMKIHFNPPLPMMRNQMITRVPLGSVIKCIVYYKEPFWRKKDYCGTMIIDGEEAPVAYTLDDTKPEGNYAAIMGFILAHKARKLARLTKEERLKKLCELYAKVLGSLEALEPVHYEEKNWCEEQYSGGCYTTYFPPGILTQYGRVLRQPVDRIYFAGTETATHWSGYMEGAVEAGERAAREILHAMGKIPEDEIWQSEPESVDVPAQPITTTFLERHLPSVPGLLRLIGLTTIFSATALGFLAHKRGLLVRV
Method: The specificity of the different SSAO inhibitors was tested by determining their ability to inhibit MAO-A and MAO-B activities in vitro. Recombinant human MAO-A and human MAO-B enzymes were obtained from BD Biosciences (MA, USA). […] A pre-determined amount of inhibitor diluted in 0.2 M potassium phosphate buffer, pH 7.6, was added to each well, if required. […] Controls lacked inhibitor. The following agents were then added to a final reaction volume of 200 μl in 0.2 M potassium phosphate buffer, pH 7.6: 0.04 mg/ml of MAO-A or 0.07 mg/ml MAO-B enzyme, 15 μl of 10 mM tyramine substrate (for MAO-A), or 15 μl 100 mM benzylamine substrate (for MAO-B), and 50 μl of freshly made chromogenic solution (as above). The plates were incubated for 60 min at 37° C. The increase in absorbance, reflecting MAO activity, was measured at 490 nm using microplate spectrophotometer (Power Wave 40, Bio-Tek Inst.). Inhibition was presented as percent inhibition compared to control after correcting for background absorbance and IC50 values calculated using GraphPad Prism software.

Q: Which IC50 [1] does the source give for `Cl.NNC/C(=C/F)c1ccccc1` [Example 10, (E)-1-fluoro-2-phenyl-3-hydrazinopropene Hydrochloride] here?
A: The IC50 was 0.065 µM.

Q: What about the “bioavailability after intravenous and intraperitoneal administration” value [2] of the same compound?
A: Its value is “readily bioavailable”.

Q: What about the IC50 [3] of the same compound?
A: The IC50 was 0.65 µM.

Q: What about the “Specificity for SSAO vs. MAO-B” value [3] of the same compound?
A: The value was 10.

Q: Which IC50 [1] does the source give for `C=C(CNN)c1ccc(F)cc1.Cl` [Example 8, N-[2-(4′-fluorophenyl)-allyl]-hydrazine Hydrochloride] here?
A: The IC50 was 0.032 µM.

Q: And the “bioavailability after intravenous and intraperitoneal administration” value [2]?
A: The value was “readily bioavailable”.

Q: What about the IC50 [3] of the same compound?
A: Its IC50 is 81 µM.

Q: What about the “Specificity for SSAO vs. MAO-B” value [3] of the same compound?
A: The value was 2,500.

Q: Which results are given for `C=C(CNN)c1ccccc1` [Example 2, Hydrochloride]?
A: IC50 [1]: 0.035 µM; bioavailability after intravenous and intraperitoneal administration [2]: readily bioavailable; IC50 [3]: 100 µM; Specificity for SSAO vs. MAO-B [3]: 2,900
